Laboratory results from PMC9402538, “Rational design of a sensitivity-enhanced tracer for discovering efficient APC–Asef inhibitors” (Nature Communications, 2022).
pKd: −log10 of the molar value. “And” between values parts separate entries of the source, which are not always exact repeats. Equal entries are not always repeated. “Also recorded” adds a separate entry of the source. Where a SMILES comes first, the peptide text is derived from it. The star is where a group is joined. Benzoyl(4-OMe) = COc1ccc(C(=O)*)cc1

What was measured:
[1] = test system: SW480 cells; experiment: Transwell migration assay, SW480; type: cell-based
Method: Cells were serum-starved for 8 h and then digested and resuspended in serum-free medium. […] The lower chambers were filled with 600 μL of complete medium. […] After 48 h, the Transwell inserts were washed twice with 1× PBS. The cells in the upper chambers of the Transwell inserts were gently removed using cotton-tipped applicators. The cells on the lower surface of the membrane were fixed with methanol and then stained with crystal violet for 10 min. The Transwell inserts were washed with distilled water to remove the excess crystal violet and then dried. The stained cells from different areas were imaged using light microscopy and counted using ImageJ (NIH).

[2] = molecular target: T1, APC–Asef PPI (FLAG-tagged APC (303–876), HA-tagged Asef (170–632)) (Homo sapiens, UniProt P25054); experiment: Exogenous Co-IP of APC–Asef in drug-treated HEK293T cell lysate; type: biochemical; settings: HEK293T cell lysate, 0.2, 1 and 5 μM, 2 h
T1 construct: FLAG-tagged APC (303–876) and hemagglutinin (HA)-tagged Asef (170–632) plasmids; expressed in transfected cells; host or cells: HEK293T (lysate treated with compound)
T1 sequence (P25054 303-876): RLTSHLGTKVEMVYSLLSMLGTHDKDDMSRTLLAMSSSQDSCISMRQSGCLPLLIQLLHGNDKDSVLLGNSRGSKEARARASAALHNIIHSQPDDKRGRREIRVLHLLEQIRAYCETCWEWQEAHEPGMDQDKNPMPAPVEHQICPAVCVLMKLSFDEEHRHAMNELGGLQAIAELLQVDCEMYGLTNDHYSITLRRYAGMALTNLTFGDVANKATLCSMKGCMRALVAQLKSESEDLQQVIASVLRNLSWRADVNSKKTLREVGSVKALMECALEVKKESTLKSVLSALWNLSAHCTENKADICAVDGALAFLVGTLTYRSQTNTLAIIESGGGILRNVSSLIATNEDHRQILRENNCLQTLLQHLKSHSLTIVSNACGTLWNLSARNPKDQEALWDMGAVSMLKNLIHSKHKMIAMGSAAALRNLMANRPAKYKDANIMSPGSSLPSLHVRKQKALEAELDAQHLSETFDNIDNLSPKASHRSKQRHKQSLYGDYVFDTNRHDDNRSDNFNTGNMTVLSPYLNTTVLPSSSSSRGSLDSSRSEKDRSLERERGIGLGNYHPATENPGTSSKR
Method: To investigate the effect of MAI-516 on the APC–Asef PPI, we first examined whether MAI-516 could perturb the APC–Asef PPI in cell lysates. HEK293T cells were transiently transfected with FLAG-tagged APC (303–876) and hemagglutinin (HA)-tagged Asef (170–632) plasmids. The cell lysates were harvested several hours after transfection and treated with different concentrations of MAI-203 and MAI-516 for 2 h; then, they were incubated with anti-FLAG® M2 affinity gel (Sigma; A2220) for 3 h at 4 °C.

[3] = test system: SW480 cells; experiment: xCELLigence RTCA-DP migration assay, SW480; type: cell-based; settings: for Cell index: 50 μM
Method: Real-time cell migration was evaluated using the xCELLigence RTCA-DP system (Roche). Briefly, SW480 cells were serum-starved for 8 h, digested, and resuspended in serum-free medium. The wells in the upper chamber of CIM plate 16 were preequilibrated with 30 μL serum-free medium for 1 h and filled with 100 μL of 4 × 10^4 serum-starved SW480 cells per well. The wells in the lower chamber of CIM plate 16 were filled with complete medium. […] Cell index values were detected every 15 min throughout the procedure, and the data were collected and analyzed with RTCA software (version 2.3).

[4] = molecular target: T2, APC N641A (Homo sapiens, UniProt P25054, N641A); experiment: ITC assay, APC N641A mutant; type: binding
T2 sequence (P25054 303-739 N641A): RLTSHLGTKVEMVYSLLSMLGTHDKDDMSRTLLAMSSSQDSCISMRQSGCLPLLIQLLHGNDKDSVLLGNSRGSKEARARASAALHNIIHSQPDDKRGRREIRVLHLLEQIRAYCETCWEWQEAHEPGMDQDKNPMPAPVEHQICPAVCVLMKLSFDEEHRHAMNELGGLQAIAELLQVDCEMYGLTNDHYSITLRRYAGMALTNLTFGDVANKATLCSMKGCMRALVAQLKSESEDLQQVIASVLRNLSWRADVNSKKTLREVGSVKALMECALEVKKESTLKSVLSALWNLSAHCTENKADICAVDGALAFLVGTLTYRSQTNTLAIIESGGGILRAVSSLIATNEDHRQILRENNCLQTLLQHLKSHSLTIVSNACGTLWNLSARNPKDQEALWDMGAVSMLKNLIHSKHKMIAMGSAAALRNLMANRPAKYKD
Method: ITC experiments were performed using a MicroCal ITC200 calorimeter (Malvern Panalytical Ltd.). APC protein and peptide inhibitors were diluted with buffer containing 50 mM HEPES pH 7.5, 300 mM NaCl and 1 mM EDTA. The cells were loaded with APC proteins at 10–20 μM. All injections were performed using an initial injection of 0.2 μL followed by 19 injections of 2 μL at 100–200 μM. All measurements were carried out at 30 °C. The data were analyzed using a single-site binding model within MicroCal ITC200 analysis software to generate the stoichiometry (N), enthalpy changes (ΔH), entropy changes (ΔS), and the association constant (K) of binding. The changes in free energy (ΔG) were calculated (ΔG = ΔH-TΔS).

COc1ccc(C(=O)N[C@@H](C)C(=O)NCC(=O)N[C@@H](CCC(=O)O)C(=O)N[C@@H](CO)C(=O)N[C@@H](CC(C)C)C(=O)N[C@@H](Cc2ccc(O)cc2)C(=O)N[C@@H](CCC(=O)O)C(N)=O)cc1 [MAI-516] ({Benzoyl(4-OMe)}-AGESLYE-NH2)
Relative migration ability (single replicates) ([1]; FigS10e, relative to DMSO): 1.11 and 1.06 and 0.96
Relative migration ability, mean ([1]; FigS10e, relative to DMSO): 1.04
cell migration (transwell) ([1]; SW480, MAI-516 50 μM, 48 h): dose not inhibit the migration; also recorded: no apparent impact
effect on APC–Asef PPI (Co-IP) [2]: dose-dependently attenuate the APC–Asef PPI
Cell index ([3]; Time 2.86 h): 0.0858 and 0.0963 and 0.0628 and 0.0638
Cell index ([3]; Time 3.11 h): 0.0938 and 0.1001 and 0.0718 and 0.0644
Cell index ([3]; Time 25.38 h): 0.4156 and 0.4495 and 0.4015 and 0.3302
Cell index ([3]; Time 25.63 h): 0.4241 and 0.453 and 0.4081 and 0.333
Cell index ([3]; Time 25.88 h): 0.4262 and 0.4606 and 0.4096 and 0.3376
Cell index ([3]; Time 26.13 h): 0.4312 and 0.4671 and 0.4174 and 0.3414
Cell index ([3]; Time 26.38 h): 0.4401 and 0.4711 and 0.4224 and 0.35
Cell index ([3]; Time 26.63 h): 0.4427 and 0.4808 and 0.4256 and 0.3526
Cell index ([3]; Time 26.88 h): 0.4494 and 0.4864 and 0.4295 and 0.3559
Cell index ([3]; Time 27.13 h): 0.4537 and 0.4902 and 0.438 and 0.3614
Cell index ([3]; Time 27.38 h): 0.4561 and 0.4966 and 0.4408 and 0.3637
Cell index ([3]; Time 27.63 h): 0.459 and 0.5021 and 0.4433 and 0.3665
Cell index ([3]; Time 27.88 h): 0.4663 and 0.508 and 0.4508 and 0.3739
Cell index ([3]; Time 28.13 h): 0.4709 and 0.5146 and 0.4572 and 0.3773
Cell index ([3]; Time 28.38 h): 0.4763 and 0.5221 and 0.4622 and 0.3808
Cell index ([3]; Time 28.63 h): 0.4818 and 0.5253 and 0.4661 and 0.3892
Cell index ([3]; Time 28.88 h): 0.484 and 0.5373 and 0.4696 and 0.3897
Cell index ([3]; Time 29.13 h): 0.4908 and 0.5435 and 0.4752 and 0.3937
Cell index ([3]; Time 29.38 h): 0.4994 and 0.5497 and 0.4817 and 0.3996
Cell index ([3]; Time 29.63 h): 0.5038 and 0.5558 and 0.4857 and 0.4052
Cell index ([3]; Time 29.88 h): 0.5108 and 0.5614 and 0.4912 and 0.4104
Cell index ([3]; Time 30.13 h): 0.5142 and 0.5705 and 0.496 and 0.4144
Cell index ([3]; Time 30.38 h): 0.5237 and 0.5775 and 0.5022 and 0.4227
Cell index ([3]; Time 30.63 h): 0.5252 and 0.5853 and 0.505 and 0.4265
Cell index ([3]; Time 30.88 h): 0.5376 and 0.5896 and 0.5138 and 0.4332
cell migration (RTCA) ([3]; SW480, MAI-516): dose not inhibit the migration; also recorded: no apparent impact
reduction of binding affinity vs APC WT [4]: ~2 fold
-TΔS ([4]; 30 °C): 5.45 kcal/mol
L/P ratio ([4]; 30 °C): 0.88
ΔG ([4]; 30 °C): -11 kcal/mol
pKd ([4]; ITC, 30 °C): 7.92
